Key:
[1] = tested on: T-Rex 293 cell line SC3 cells having increased expression of androgen receptor protein due to exposure to doxycycline; assay: Cellular growth inhibition, T-Rex 293 SC3 cells with doxycycline (androgen receptor induced), CellTiter-Glo; format: cell-based; conditions: T-Rex 293 SC3 cells with 10 ng/mL doxycycline (increased androgen receptor expression)
In short: (§1)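 Doxycycline-inducible androgen receptor T-Rex 293 clone SC3, seeded at 2500/well in phenol red-free DMEM with 10% charcoal-dextran FBS, without doxycycline or with 10 ng/mL to induce receptor. Compound added after 24 h (0.5% DMSO), 72 h at 37 °C; CellTiter-Glo 2.0 luminescence, GI50 by four-parameter fit.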

[2] = tested on: T-Rex 293 cell line SC3 cells lacking increased expression of androgen receptor protein; assay: Cellular growth inhibition, T-Rex 293 SC3 cells without doxycycline, CellTiter-Glo; format: cell-based; conditions: T-Rex 293 SC3 cells not exposed to doxycycline, CellTiter-Glo 2.0
In short: as §1

[3] = tested on: VCaP cells; assay: Cellular growth inhibition assay for VCaP cells, CellTiter-Glo; format: cell-based, human; conditions: 72 hours treatment, CellTiter-Glo 2.0
In short: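 GI50 values come from four-parameter curve fits of luminescence data normalized to a zero baseline. Compound, in medium with 0.5% DMSO, was added one day after plating and left for 72 h before CellTiter-Glo 2.0 addition.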

[4] = tested on: T47D cells; assay: Cellular growth inhibition assay for T47D cells, CellTiter-Glo; format: cell-based, human; conditions: 72 hours treatment, CellTiter-Glo 2.0 cell viability
In short: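 Cells are plated at 3000/well and allowed 24 h before treatment. Test compound in medium containing 0.5% DMSO is then added, with DMSO-only wells as negative control, and plates are incubated 72 h at 37 °C. ATP luminescence (CellTiter-Glo 2.0) is then fitted to four parameters to derive GI50.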

Cc1sc2c(c1C)C(c1ccc(-n3ccc(C4CCN(c5ncc(C(=O)N[C@H]6C(C)(C)[C@H](Oc7ccc(C#N)c(Cl)c7)C6(C)C)cn5)CC4)n3)cc1)=N[C@@H](Cc1ncco1)c1nnc(C)n1-2 [Compound I-441]
GI50 ([1]; 72 h): < 0.5 µM
GI50 ([2]; 72 h): 0.5 to 1.5 µM
GI50 ([3]; Homo sapiens, VCaP, 72 h): < 0.5 µM
GI50 ([4]; Homo sapiens, T47D, 72 h): < 0.5 µM

Cc1sc2c(c1C)C(c1ccc(-c3ncc(C4CCN(c5ncc(C(=O)N[C@H]6C(C)(C)[C@H](Oc7ccc(C#N)c(Cl)c7)C6(C)C)cn5)CC4)o3)cc1)=N[C@@H](Cc1ncco1)c1nnc(C)n1-2 [Compound I-442]
GI50 ([1]; 72 h): < 0.5 µM
GI50 ([2]; 72 h): > 3 µM
GI50 ([3]; Homo sapiens, VCaP, 72 h): < 0.5 µM
GI50 ([4]; Homo sapiens, T47D, 72 h): < 0.5 µM

Cc1sc2c(c1C)C(c1ccc(-c3cc(OC4CCN(c5ncc(C(=O)N[C@H]6C(C)(C)[C@H](Oc7ccc(C#N)c(Cl)c7)C6(C)C)cn5)CC4)cs3)cc1)=N[C@@H](Cc1ncco1)c1nnc(C)n1-2 [Compound I-443]
GI50 ([1]; 72 h): < 0.5 µM
GI50 ([2]; 72 h): > 3 µM
GI50 ([3]; Homo sapiens, VCaP, 72 h): < 0.5 µM
GI50 ([4]; Homo sapiens, T47D, 72 h): > 3 µM

Cc1sc2c(c1C)C(c1ccc(-c3ccsc3OC3CCN(c4ncc(C(=O)N[C@H]5C(C)(C)[C@H](Oc6ccc(C#N)c(Cl)c6)C5(C)C)cn4)CC3)cc1)=N[C@@H](Cc1ncco1)c1nnc(C)n1-2 [Compound I-444]
GI50 ([1]; 72 h): < 0.5 µM
GI50 ([2]; 72 h): > 3 µM
GI50 ([3]; Homo sapiens, VCaP, 72 h): < 0.5 µM
GI50 ([4]; Homo sapiens, T47D, 72 h): > 3 µM

Cc1sc2c(c1C)C(c1ccc(CC3CC(OC4CCN(c5ncc(C(=O)N[C@H]6C(C)(C)[C@H](Oc7ccc(C#N)c(Cl)c7)C6(C)C)cn5)CC4)C3)cc1)=N[C@@H](C)c1nnc(C)n1-2 (some centres unmarked) [Compound I-445]
GI50 ([1]; 72 h): < 0.5 µM
GI50 ([2]; 72 h): > 3 µM
GI50 [3]: < 0.5 µM
GI50 ([4]; Homo sapiens, T47D, 72 h): < 0.5 µM

Cc1sc2c(c1C)C(c1ccc(CC3CC4(CCN(c5ccc(C(=O)N[C@H]6C(C)(C)[C@H](Oc7ccc(C#N)c(Cl)c7)C6(C)C)nc5)CC4)C3)cc1)=N[C@@H](C)c1nnc(C)n1-2 [Compound I-447]
GI50 ([1]; 72 h): < 0.5 µM
GI50 ([2]; 72 h): > 3 µM
GI50 ([3]; Homo sapiens, VCaP, 72 h): 0.5 to 1.5 µM
GI50 ([4]; Homo sapiens, T47D, 72 h): < 0.5 µM

Cc1sc2c(c1C)C(c1ccc(CC3CC4(CCN(c5cnc(C(=O)N[C@H]6C(C)(C)[C@H](Oc7ccc(C#N)c(Cl)c7)C6(C)C)cn5)CC4)C3)cc1)=N[C@@H](C)c1nnc(C)n1-2 [Compound I-448]
GI50 ([1]; 72 h): < 0.5 µM
GI50 ([2]; 72 h): > 3 µM
GI50 ([3]; Homo sapiens, VCaP, 72 h): > 3 µM
GI50 ([4]; Homo sapiens, T47D, 72 h): < 0.5 µM

Cc1sc2c(c1C)C(c1ccc(N3CC(CC4CCN(c5ccc(C(=O)N[C@H]6C(C)(C)[C@H](Oc7ccc(C#N)c(Cl)c7)C6(C)C)nc5)CC4)C3)cc1)=N[C@@H](C)c1nnc(C)n1-2 [Compound I-449]
GI50 ([1]; 72 h): > 3 µM
GI50 ([2]; 72 h): > 3 µM
GI50 ([3]; Homo sapiens, VCaP, 72 h): > 3 µM
GI50 ([4]; Homo sapiens, T47D, 72 h): 0.5 to 1.5 µM

Cc1sc2c(c1C)C(c1ccc(N3CC(CC4CCN(c5cnc(C(=O)N[C@H]6C(C)(C)[C@H](Oc7ccc(C#N)c(Cl)c7)C6(C)C)cn5)CC4)C3)cc1)=N[C@@H](C)c1nnc(C)n1-2 [Compound I-450]
GI50 ([1]; 72 h): 0.5 to 1.5 µM
GI50 ([2]; 72 h): > 3 µM
GI50 ([3]; Homo sapiens, VCaP, 72 h): > 3 µM
GI50 ([4]; Homo sapiens, T47D, 72 h): < 0.5 µM

Cc1sc2c(c1C)C(c1ccc(N3CCC[C@@H](OCCc4ncc(C(=O)N[C@H]5C(C)(C)[C@H](Oc6ccc(C#N)c(Cl)c6)C5(C)C)cn4)C3)cc1)=N[C@@H](Cc1ncco1)c1nnc(C)n1-2 [Compound I-451]
GI50 ([1]; 72 h): < 0.5 µM
GI50 ([2]; 72 h): 0.5 to 1.5 µM
GI50 ([3]; Homo sapiens, VCaP, 72 h): < 0.5 µM
GI50 ([4]; Homo sapiens, T47D, 72 h): 0.5 to 1.5 µM

Cc1sc2c(c1C)C(c1ccc(-c3ncc(C4CCN(c5ncc(C(=O)N[C@H]6C(C)(C)[C@H](Oc7ccc(C#N)c(Cl)c7)C6(C)C)cn5)CC4)s3)cc1)=N[C@@H](Cc1ncco1)c1nnc(C)n1-2 [Compound I-452]
GI50 ([1]; 72 h): < 0.5 µM
GI50 ([2]; 72 h): < 0.5 µM
GI50 ([3]; Homo sapiens, VCaP, 72 h): < 0.5 µM
GI50 ([4]; Homo sapiens, T47D, 72 h): < 0.5 µM

Cc1sc2c(c1C)C(c1ccc(-c3cc(C4CCN(c5ncc(C(=O)N[C@H]6C(C)(C)[C@H](Oc7ccc(C#N)c(Cl)c7)C6(C)C)cn5)CC4)on3)cc1)=N[C@@H](Cc1ncco1)c1nnc(C)n1-2 [Compound I-453]
GI50 ([1]; 72 h): < 0.5 µM
GI50 ([2]; 72 h): > 3 µM
GI50 ([3]; Homo sapiens, VCaP, 72 h): < 0.5 µM
GI50 ([4]; Homo sapiens, T47D, 72 h): < 0.5 µM

Cc1sc2c(c1C)C(c1ccc(-c3noc(C4CCN(c5ncc(C(=O)N[C@H]6C(C)(C)[C@H](Oc7ccc(C#N)c(Cl)c7)C6(C)C)cn5)CC4)n3)cc1)=N[C@@H](Cc1ncco1)c1nnc(C)n1-2 [Compound I-454]
GI50 ([1]; 72 h): < 0.5 µM
GI50 ([2]; 72 h): < 0.5 µM
GI50 ([3]; Homo sapiens, VCaP, 72 h): < 0.5 µM
GI50 ([4]; Homo sapiens, T47D, 72 h): 0.5 to 1.5 µM

Cc1sc2c(c1C)C(c1ccc(-n3nccc3C3CCN(c4ncc(C(=O)N[C@H]5C(C)(C)[C@H](Oc6ccc(C#N)c(Cl)c6)C5(C)C)cn4)CC3)cc1)=N[C@@H](Cc1ncco1)c1nnc(C)n1-2 [Compound I-455]
GI50 ([1]; 72 h): < 0.5 µM
GI50 ([2]; 72 h): > 3 µM
GI50 ([3]; Homo sapiens, VCaP, 72 h): < 0.5 µM
GI50 ([4]; Homo sapiens, T47D, 72 h): > 3 µM

Cc1sc2c(c1C)C(c1ccc(OC3CC4(CCN(c5ncc(C(=O)N[C@H]6C(C)(C)[C@H](Oc7ccc(C#N)c(Cl)c7)C6(C)C)cn5)CC4)C3)c(F)c1)=N[C@@H](Cc1ncco1)c1nnc(C)n1-2 [Compound I-456]
GI50 ([1]; 72 h): < 0.5 µM
GI50 ([2]; 72 h): > 3 µM
GI50 ([3]; Homo sapiens, VCaP, 72 h): 1.5 to 3 µM
GI50 ([4]; Homo sapiens, T47D, 72 h): > 3 µM

Cc1sc2c(c1C)C(c1ccc(OC3CC4(CCN(c5ncc(C(=O)N[C@H]6C(C)(C)[C@H](Oc7ccc(C#N)c(Cl)c7)C6(C)C)cn5)CC4)C3)cc1F)=N[C@@H](Cc1ncco1)c1nnc(C)n1-2 [Compound I-457, N-[3-(3-chloro-4-cyano-phenoxy)-2,2,4,4-tetramethyl-cyclobutyl]-2-[2-[3-fluoro-4-[(9S)-4,5,13-trimethyl-9-(oxazol-2-ylmethyl)-3-thia-1,8,11,12-tetrazatricyclo[8.3.0.02,6]trideca-2(6),4,7,10,12-pentaen-7-yl]phenoxy]-7-azaspiro [3.5]nonan-7-yl]pyrimidine-5-carboxamide]
GI50 ([1]; 72 h): < 0.5 µM
GI50 ([2]; 72 h): < 0.5 µM
GI50 ([3]; Homo sapiens, VCaP, 72 h): < 0.5 µM
GI50 ([4]; Homo sapiens, T47D, 72 h): < 0.5 µM

Cc1sc2c(c1C)C(c1ccc(N3CC4(CCC(Cc5ncc(C(=O)N[C@H]6C(C)(C)[C@H](Oc7ccc(C#N)c(Cl)c7)C6(C)C)cn5)CC4)C3)cc1)=N[C@@H](Cc1ncco1)c1nnc(C)n1-2 [Compound I-458]
GI50 ([1]; 72 h): < 0.5 µM
GI50 ([2]; 72 h): < 0.5 µM
GI50 ([3]; Homo sapiens, VCaP, 72 h): < 0.5 µM
GI50 ([4]; Homo sapiens, T47D, 72 h): < 0.5 µM

Cc1sc2c(c1C)C(c1ccc(N3CCC4(CC3)CC(Cc3ncc(C(=O)N[C@H]5C(C)(C)[C@H](Oc6ccc(C#N)c(Cl)c6)C5(C)C)cn3)C4)cc1)=NC(Cc1ncco1)c1nnc(C)n1-2 (some centres unmarked) [Compound I-459]
GI50 ([1]; 72 h): < 0.5 µM
GI50 ([2]; 72 hours): > 3 µM
GI50 [3]: > 3 µM
GI50 [4]: 1.5 to 3 µM

Cc1sc2c(c1C)C(c1ccc(N3CCC4(CC3)CC(Cc3ncc(C(=O)N[C@H]5C(C)(C)[C@H](Oc6ccc(C#N)c(Cl)c6)C5(C)C)cn3)C4)cc1)=NC(Cc1ncco1)c1nnc(C)n1-2 (some centres unmarked) [Compound I-460]
GI50 ([1]; 72 hours): < 0.5 µM
GI50 ([2]; 72 hours): 0.5 to 1.5 µM
GI50 [3]: < 0.5 µM
GI50 [4]: < 0.5 µM

Cc1sc2c(c1C)C(c1ccc(OC3CC4(CCN(c5ncc(C(=O)N[C@H]6C(C)(C)[C@H](Oc7ccc(C#N)c(Cl)c7)C6(C)C)cn5)CC4)C3)cc1)=NC1(CC1)c1nnc(C)n1-2 [Compound I-461]
GI50 ([1]; 72 h): < 0.5 µM
GI50 ([2]; 72 h): 0.5 to 1.5 µM
GI50 ([3]; Homo sapiens, VCaP, 72 h): < 0.5 µM
GI50 ([4]; Homo sapiens, T47D, 72 h): < 0.5 µM

Cc1sc2c(c1C)C(c1ccc(C#CC3CC4(C3)CN(c3ncc(C(=O)N[C@H]5C(C)(C)[C@H](Oc6ccc(C#N)c(Cl)c6)C5(C)C)cn3)C4)cc1)=NC1(CC1)c1nnc(C)n1-2 [Compound I-462]
GI50 ([1]; 72 h): < 0.5 µM
GI50 ([2]; 72 h): 0.5 to 1.5 µM
GI50 ([3]; Homo sapiens, VCaP, 72 h): < 0.5 µM
GI50 ([4]; Homo sapiens, T47D, 72 h): 0.5 to 1.5 µM

Cc1sc2c(c1C)C(c1ccc(C(C)(C)N3CC4(CCCN(c5ncc(C(=O)N[C@H]6C(C)(C)[C@H](Oc7ccc(C#N)c(Cl)c7)C6(C)C)cn5)C4)C3)cc1)=N[C@@H](C)c1nnc(C)n1-2 [Compound I-464]
GI50 ([1]; 72 h): < 0.5 µM
GI50 ([2]; 72 h): > 3 µM
GI50 ([3]; Homo sapiens, VCaP, 72 h): < 0.5 µM
GI50 ([4]; Homo sapiens, T47D, 72 h): > 3 µM

Cc1sc2c(c1C)C(c1ccc(C3CC(C4CCN(c5ncc(C(=O)N[C@H]6C(C)(C)[C@H](Oc7ccc(C#N)c(Cl)c7)C6(C)C)cn5)CC4)C3)cc1)=NC(C)c1nnc(C)n1-2 (some centres unmarked) [Compound I-465]
GI50 ([1]; 72 h): < 0.5 µM
GI50 ([2]; 72 h): > 3 µM
GI50 [3]: < 0.5 µM
GI50 ([4]; Homo sapiens, T47D, 72 h): < 0.5 µM

Reference: US20260062422A1 (Halda Therapeutics OpCo, Inc., priority 2022, published 2026)
